From article PMC9768625, “Is the vesicular nucleotide transporter a molecular target of eicosapentaenoic acid?” (Frontiers in Pharmacology, 2022) come the findings set out here.

The target in the test is T1, V-ATPase (vacuolar H^+-ATPase), purified from chromaffin granules (Bos taurus, UniProt P23956+Q29466).
T1 construct: gene ATP6V0C; purified chromaffin granule V-ATPase in reconstituted proteoliposomes (multi-subunit complex; subunits A, B and c indicated)
As to the kind of experiment: colorimetric Mg-ATPase (Pi release) assay of proteoliposomes containing purified V-ATPase, con B at […]. The following applies: proteoliposomes with purified v-atpase. The format is biochemical.

Some results are limits rather than exact numbers.

As to `C/C=C/[C@H]1O[C@@](O)([C@@H](C)[C@H](O)[C@H](C)[C@H]2OC(=O)/C(OC)=C/C(C)=C/[C@@H](C)[C@@H](O)[C@@H](C)[C@@H](O)[C@H](C)C/C(C)=C/C=C/[C@@H]2OC)C[C@@H](O[C@H]2C[C@@H](O)[C@H](OC(N)=O)[C@@H](C)O2)[C@@H]1C` [con B, concanamycin B], the “% of ATPase activity sensitive at 1 μM” value was > 95 % of ATPase activity sensitive at 1 μM.
